According to patent publication US20210046018A1 (priority 2019, published 2021):

Assays:
sodium channels = settings: in vivo; cited from earlier work
[1] = cited from earlier work
rat = assay: Orbital tightening (OT) after heptanol corneal abrasion injury, pre-clinical model of PRK; type: in vivo; settings: 24 hours post-injury; topical eye drops; FIG. 6B; abrasion increases OT scores
Description: A unilateral corneal injury was performed using topical application of heptanol. FIG. 3 is a diagram of a corneal abrasion method using topical application 310 of heptanol performed on an anesthetized rat. A local anesthetic was applied to the eye 320 via ophthalmic drops. A small metal ring 330 was then secured to the corneal surface with petroleum jelly. Heptanol (10 μL) 340 was placed inside the ring for 90 seconds, the heptanol was removed from inside the ring with a cotton swab and the eye is rinsed profusely with saline. The loose corneal epithelium was then removed with a cotton applicator 350. FIG. 4 is a graph representing of acute hyperalgesia after corneal abrasion injury, illustrating that this method induces photophobia as well as hyperalgesia to ocular application of menthol. This method produces abrasions of relatively uniform size and depth, in contrast to other mechanical abrasion methods.
In various embodiments, topical (ophthalmic) application of the compositions described herein can reduce or eliminate the hyperalgesia produced by corneal abrasion in a pre-clinical model of PRK. […]
Doses of trans-resveratrol up to 4% (corresponding to up to […] in 10 μL) were tested. […] Topical application is efficacious, because resveratrol is very lipophilic and should be readily taken up into the tear film that covers the surface of the eye. […]

[2] = tested on: cultured trigeminal ganglion neurons; settings: caused by nerve growth factor exposure; cited from earlier work
hindpaw incision = settings: topical, cited from earlier work
corneal epithelium = type: in vivo, rat; settings: capsaicin application, FIG. 5C
Description: Deeper wounds may remove the basement membrane and prevent reinnervation (at least in some strains of mice).

Structure (SMILES): NC1=N[C@H](O)[C@H]2[C@H]3O[C@]4(O)O[C@@H]([C@@H](O)[C@@]2(N1)[C@@H]4O)[C@]3(O)CO [TTX, tetrodotoxin]
- photophobia (sodium channels): can reduce the photophobia
- solubility in tear film [1]: not soluble in tear film

Structure (SMILES): Oc1ccc(C=Cc2cc(O)cc(O)c2)cc1 (racemic) [resveratrol]
- orbital tightening (OT) scores (rat): dose-dependent trend for resveratrol to reverse this
- hyperexcitability of neurons [2]: reduce hyperexcitability
- hyperalgesic priming (hindpaw incision; 14-days after incision): prevents the full development
- acute hyperalgesia (hindpaw incision; following hindpaw incision): attenuates

Structure (SMILES): COc1cc(CNC(=O)CCCC/C=C/C(C)C)ccc1O [capsaicin]
- overall epithelial structure (H&E stain) (corneal epithelium): does not alter overall epithelial structure
